Experimental data taken from US20180333418A1, “USE OF PAN FGFR INHIBITORS AND METHOD OF IDENTIFYING PATIENTS WITH CANCER ELIGIBLE FOR TREATMENT WITH A PAN FGFR INHIBITOR” (BAYER PHARMA AKTIENGESELLSCHAFT, priority 2014, published 2018).

Experiments:
H1581 lung tumor model = assay: H1581 xenograft in vivo efficacy; parameters: species or system nu/nu mice; conditions: tumor weight reduction
Experimental: (§1) For all other tumors as listed in table 2 & 3 the experiments were carried out in an analogous way as described above.

[1] = system: HNXF908 head&neck tumor model; assay: HNXF908 xenograft in vivo efficacy; parameters: species or system nu/nu mice; conditions: tumor weight reduction
Experimental: as §1

H716 colon tumor model = assay: H716 xenograft in vivo efficacy; parameters: species or system nu/nu mice; conditions: tumor weight reduction
Experimental: as §1

LU1901 lung tumor model = assay: LU1901 xenograft in vivo efficacy; parameters: species or system nu/nu mice; conditions: tumor weight reduction
Experimental: as §1

[2] = system: SNU16 gastric tumor model; assay: SNU16 xenograft in vivo efficacy; parameters: species or system nu/nu mice; conditions: tumor weight reduction
Experimental: as §1

[3] = system: MFM223 breast tumor model; assay: MFM223 xenograft in vivo efficacy; parameters: species or system nu/nu mice; conditions: tumor weight reduction
Experimental: as §1

[4] = system: OVXF1023 ovarian carcinoma; assay: OVXF1023 patient-derived xenograft study; format: in vivo, nu/nu mice
Excerpt: Female, 5-7 weeks old immunocompromised nu/nu mice (18-24 g) from Janvier (France) were used for the patient-derived OVX1023 ovarian carcinoma study.
The animals were housed in individually ventilated cages ([…] Sealsafe™-IVC-System, […], Hohenpeissenberg, Germany) and were kept under a 14L:10D artificial light cycle. The animals were monitored twice daily. Depending on group size, either type III cages or type II long cages were used. Dust-free bedding consisting of aspen wood chips with approximate dimensions of 5×5×1 mm (ABEDD®—LAB & VET Service GmbH, Vienna, Austria, Product Code: LTE E-001) were used. Additional nesting material was routinely added. […]
All experiments were approved by the local authorities, and were conducted according to all applicable international, national and local laws and guidelines. […] Animals were routinely monitored twice daily on working days and daily on weekends and public holidays. […]
Tumor size was measured twice weekly in two dimensions using a caliper, and the volume was expressed in mm^3 using the formula: V=0.5a×b^2 where a and b are the long and short diameters of the tumor, respectively. […] T-C was calculated with T as the time (in days) required for the mean tumor size of the treatment group to reach a predetermined size (e.g. 1000 mm^3), and C was the time (in days) for the mean tumor size of the control group to reach the same size. […]

OMP2 myeloma tumor model = assay: OMP2 xenograft in vivo efficacy; parameters: species or system nu/nu mice; conditions: tumor weight reduction
Experimental: as §1

For `COCc1c(-c2cc3cc(C)cc(OC)c3s2)c2c(N)ncnn2c1CN1CCNC(=O)C1` [compound of formula (I)], the in vivo efficacy (H1581 lung tumor model) was “yes (All models in which the tumor weight was reduced upon treatment with compounds of formula (I) by at least 50% were considered to be efficacious in vivo.)”, the in vivo efficacy [1] was “yes (All models in which the tumor weight was reduced upon treatment with compounds of formula (I) by at least 50% were considered to be efficacious in vivo.)” and the in vivo efficacy (H716 colon tumor model) was “yes (All models in which the tumor weight was reduced upon treatment with compounds of formula (I) by at least 50% were considered to be efficacious in vivo.)”. The in vivo efficacy (LU1901 lung tumor model) was “no (All models in which the tumor weight was reduced upon treatment with compounds of formula (I) by at least 50% were considered to be efficacious in vivo.)”, the in vivo efficacy [2] was “yes (All models in which the tumor weight was reduced upon treatment with compounds of formula (I) by at least 50% were considered to be efficacious in vivo.)” and the in vivo efficacy [3] was “yes (All models in which the tumor weight was reduced upon treatment with compounds of formula (I) by at least 50% were considered to be efficacious in vivo.)”. The “T/C at day 38 post treatment start” value ([4]; OVXF1023, 35 mg/kg 2QD 5 days on- 2 days off po, treated mean/vehicle mean tumor volume) was 0.2, the in vivo efficacy ([4]; OVXF1023 ovarian model, tumor weight reduction) was “yes (All models in which the tumor weight was reduced upon treatment with compounds of formula (I) by at least 50% were considered to be efficacious in vivo.)” and the in vivo efficacy (OMP2 myeloma tumor model) was “no (All models in which the tumor weight was reduced upon treatment with compounds of formula (I) by at least 50% were considered to be efficacious in vivo.)”.
